Assay results reported in patent publication US7781432B2 (Gruenenthal GmbH, priority 2004, dated 2010).

Biological target: T1, Nucleoside Transporter (Homo sapiens, UniProt Q99808)
T1 sequence (Q99808 1-456): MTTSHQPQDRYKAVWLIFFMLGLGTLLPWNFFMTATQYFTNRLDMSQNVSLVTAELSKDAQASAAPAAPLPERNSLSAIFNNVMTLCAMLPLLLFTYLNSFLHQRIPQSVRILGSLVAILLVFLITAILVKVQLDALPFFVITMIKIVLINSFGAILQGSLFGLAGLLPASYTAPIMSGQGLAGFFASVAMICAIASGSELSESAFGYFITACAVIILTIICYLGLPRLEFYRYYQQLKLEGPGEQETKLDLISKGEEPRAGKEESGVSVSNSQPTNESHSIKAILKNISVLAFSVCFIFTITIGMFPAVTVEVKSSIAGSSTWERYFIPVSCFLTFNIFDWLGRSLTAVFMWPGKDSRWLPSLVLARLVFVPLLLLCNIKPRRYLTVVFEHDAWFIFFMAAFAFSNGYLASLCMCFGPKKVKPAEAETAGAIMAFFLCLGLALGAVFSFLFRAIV
Test: radioligand binding assay with [3H]NBTI on human erythrocyte membranes
Settings: [[…] 1.5 nM, test concentration not printed (footnote c missing)

Q: Which “Binding Nucleoside Transporter (value printed as % in the Ki column)” value does the source give for OC[C@H]1O[C@@H](n2c(N3CCOCC3)nc3c(SCc4ccccc4)ncnc32)[C@H](O)[C@@H]1O [Example 13] here?
A: The value was 33%^c.

Tested on: not given
Test: not given
Settings: not given

Q: Which melting point does the source give for O=[N+]([O-])c1ccc(CSc2ncnc3c2nc(NC2CCCC2)n3Cc2ccccc2)cc1 [Example 14, 9-benzyl-8-(cyclopentylamine)-6-(4-nitrobenzyl)-mercaptopurine] here?
A: The melting point was 150 to 151 °C.

Q: For O=[N+]([O-])c1ccc(CSc2ncnc3c2nc(NC2CCCCC2)n3Cc2ccccc2)cc1 [Example 15, 9-benzyl-8-(cyclohexylamine)-6-(4-nitrobenzyl)-mercaptopurine], which melting point is on record?
A: The melting point was 66 to 68 °C.

Biological target: T1, Nucleoside Transporter
Test: not given
Settings: pH 7.4

Q: With “6-benzyl-8-(cyclohexylamino)-thioinosine [Example 10]” as the compound, how does the Ki read?
A: Its Ki is 0.94 nM.

Q: Which Ki does the source give for “6-benzyl-8-(n-butylamino)-thioinosine [Example 4]” here?
A: Its Ki is 5.4 nM.

Q: For “6-benzyl-8-(n-pentylamino)-thioinosine [Example 5]”, which Ki is on record?
A: Its Ki is 2.3 nM.

Q: For “9-benzyl-6-(4-nitrobenzyl)-8-pyrrolidino-mercaptopurine [Example 16]”, which Ki is on record?
A: The Ki was 1520 nM.

Q: With CCNc1nc2c(SCc3ccccc3)ncnc2n1[C@@H]1O[C@H](CO)[C@@H](O)[C@H]1O [Example 2, 6-benzyl-8-ethylamino-thioinosine] as the compound, how does the Ki read?
A: Its Ki is 9.5 nM.

Q: Which Ki does the source give for CCCNc1nc2c(SCc3ccccc3)ncnc2n1[C@@H]1O[C@H](CO)[C@@H](O)[C@H]1O [Example 3, 6-benzyl-8-(n-propylamino)-thioinosine] here?
A: The Ki was 5.3 nM.

Q: With CCC(C)CNc1nc2c(SCc3ccccc3)ncnc2n1[C@@H]1O[C@H](CO)[C@@H](O)[C@H]1O (stereo partly shown) [Example 7, 6-benzyl-8-[(2-methyl-butyl)-amino]-thioinosine] as the compound, how does the Ki read?
A: The Ki was 3.6 nM.

Q: With OC[C@H]1O[C@@H](n2c(NC3CC3)nc3c(SCc4ccccc4)ncnc32)[C@H](O)[C@@H]1O [Example 8, 6-benzyl-8-(cyclopropylamino)-thioinosine] as the compound, how does the Ki read?
A: Its Ki is 3 nM.

Q: With OC[C@H]1O[C@@H](n2c(NC3CCCC3)nc3c(SCc4ccccc4)ncnc32)[C@H](O)[C@@H]1O [Example 9, 6-benzyl-8-(cyclopentylamino)-thioinosine] as the compound, how does the Ki read?
A: Its Ki is 0.64 nM.

Q: Which Ki does the source give for OC[C@H]1O[C@@H](n2c(N3CCCC3)nc3c(SCc4ccccc4)ncnc32)[C@H](O)[C@@H]1O [Example 11, 6-benzyl-8-pyrrolidino-thioinosine] here?
A: Its Ki is 410 nM.

Q: For OC[C@H]1O[C@@H](n2c(N3CCCCC3)nc3c(SCc4ccccc4)ncnc32)[C@H](O)[C@@H]1O [Example 12, 6-benzyl-8-piperidino-thioinosine], which Ki is on record?
A: The Ki was 744 nM.

Q: For O=[N+]([O-])c1ccc(CSc2ncnc3c2nc(NC2CCCC2)n3Cc2ccccc2)cc1 [Example 14, 9-benzyl-8-(cyclopentylamine)-6-(4-nitrobenzyl)-mercaptopurine], which Ki is on record?
A: The Ki was 29 nM.

Q: With O=[N+]([O-])c1ccc(CSc2ncnc3c2nc(NC2CCCCC2)n3Cc2ccccc2)cc1 [Example 15, 9-benzyl-8-(cyclohexylamine)-6-(4-nitrobenzyl)-mercaptopurine] as the compound, how does the Ki read?
A: The Ki was 55 nM.

Biological target: T1, Nucleoside Transporter
Test: biochemical
Settings: not given

Q: For c1ccc(Cn2c(N3CCOCC3)nc3c(SCc4ccc5nonc5c4)ncnc32)cc1 [Example 19, 6-(benzo[c][1,2,5]oxadiazole-5-ylmethylsulfanyl)-9-benzyl-8-morpholin-4-yl-9H-purine], which Ki is on record?
A: The Ki was 122 nM.

Q: For c1ccc(CSc2ncnc3c2nc(N2CCOCC2)n3Cc2ccccc2)cc1 [Example 20, 9-benzyl-6-benzylsulfanyl-8-morpholin-4-yl-9H-purine], which Ki is on record?
A: The Ki was 1390 nM.

Q: For c1ccc(CSc2ncnc3c2nc(N2CCCC2)n3Cc2ccccc2)cc1 [Example 21, 9-benzyl-6-benzylsulfanyl-8-pyrrolidin-1-yl-9H-purine], which Ki is on record?
A: Its Ki is 514 nM.
